Legend:
[1] = blood pressure decrease in canines upon sublingual administration; assay type: in vivo; conditions: for Blood Pressure Decrease (%): canines
coronary perfusion = assay: coronary activity / effect on coronary perfusion (general statement); assay type: in vivo
heart muscle = assay: myocardial (heart) perfusion in canines, electromagnetic flow meter, sublingual administration; assay type: in vivo; conditions: for % Increase in Heart Perfusion / Half-life duration (of heart perfusion increase): canines
From the text: The ability of the compound to assist in the perfusion action of the heart muscle can be conveniently observed in recognized pharmacological models. For example, the myocardial perfusion in canines can be observed utilizing an electromagnetic flow meter. Upon sublingual administration to canines, the following pharmacological manifestations are, for example, observed.

stability towards light = assay type: physicochemical; conditions: compared with previously known 1,4-dihydropyridines

For `COC(=O)C1=C(C)NC(C)=C(C(=O)OCC(C)C)C1c1ccccc1[N+](=O)[O-]` (stereo not shown) [the compound, isobutyl methyl 1,4-dihydro-2,6-dimethyl-4-(2-nitrophenyl)-3,5-pyridinedicarboxylate], the “Blood Pressure Decrease (%)” value ([1]; 0.003 mg/kg sublingual) was “.phi”, the “Blood Pressure Decrease (%)” value ([1]; 0.01 mg/kg sublingual) was 5% and the “Blood Pressure Decrease (%)” value ([1]; 0.1 mg/kg sublingual) was 13%. For the same compound, the “lowering of blood pressure (in words)” value ([1]; sublingual administration) was “slight and equally long lasting lowering of blood pressure”, the “coronary activity, magnitude and length of action” value (coronary perfusion; compared with any 1,4-dihydropyridine presently known) was “significantly greater than any 1,4-dihydropyridine presently known” and the “effect on coronary perfusion (in words)” value (coronary perfusion; in vivo) was “powerful and long acting effect on coronary perfusion”. For the same compound, the “% Increase in Heart Perfusion” value (heart muscle; 0.003 mg/kg sublingual) was 23%, the “Half-life duration (of heart perfusion increase)” value (heart muscle; 0.003 mg/kg sublingual) was 1.67 h and the “% Increase in Heart Perfusion” value (heart muscle; 0.01 mg/kg sublingual) was 46%. For the same compound, the “Half-life duration (of heart perfusion increase)” value (heart muscle; 0.01 mg/kg sublingual) was 2.22 h, the “% Increase in Heart Perfusion” value (heart muscle; 0.1 mg/kg sublingual) was 142% and the “Half-life duration (of heart perfusion increase)” value (heart muscle; 0.1 mg/kg sublingual) was 3.07 h. The “increase of perfusion of the heart muscle, dose dependence (in words)” value (heart muscle; sublingual administration) was “increases the perfusion of the heart muscle and that this action is a function of dose”, the “onset of action after sublingual administration” value (heart muscle; sublingual administration) was “a few minutes after sublingual administration” and the “total duration of action on heart muscle perfusion” value (heart muscle; sublingual administration, depending upon the dose) was 2 to 6 h. For the same compound, the stability towards light (stability towards light) was “considerably greater stability towards light than previously known 1,4-dihydropyridines”.
